Assay results as given in publication PMC10629491 (RSC Advances, 2023).
Entries after “also recorded” stand apart in the source; their conditions may differ.

Assays:
[1] = molecular target: T1, mushroom tyrosinase (Agaricus bisporus, UniProt C7FF04); assay: Enzymatic assay for tyrosinase inhibition; assay type: biochemical; conditions: read-out: Inhibition% ± SEM
[2] = DPPH free radical scavenging assay; conditions: 517 nm; for DPPH (%): radical scavenging, concentration not given; for EC50: read-out: EC50 (DPPH radical scavenging)
[3] = molecular target: T1, mushroom tyrosinase; assay: Determination of the inhibition type; assay type: biochemical; conditions: Lineweaver-Burk

T1 sequence (C7FF04 2-392): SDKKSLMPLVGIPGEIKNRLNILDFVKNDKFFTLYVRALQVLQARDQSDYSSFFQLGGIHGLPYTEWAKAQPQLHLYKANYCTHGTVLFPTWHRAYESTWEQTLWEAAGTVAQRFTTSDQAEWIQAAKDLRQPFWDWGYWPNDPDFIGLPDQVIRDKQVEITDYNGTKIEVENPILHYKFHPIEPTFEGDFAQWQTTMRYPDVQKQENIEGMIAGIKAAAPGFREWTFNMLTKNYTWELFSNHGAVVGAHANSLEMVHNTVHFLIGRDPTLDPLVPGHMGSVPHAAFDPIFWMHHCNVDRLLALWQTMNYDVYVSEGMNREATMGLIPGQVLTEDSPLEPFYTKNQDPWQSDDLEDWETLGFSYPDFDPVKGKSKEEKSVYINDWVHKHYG

| inhibition at 50 µM [1] [%] | EC50 [2] [µM] | Km value with increasing inhibitor concentration ([3]; L-Dopa) | Vmax with increasing inhibitor concentration ([3]; L-Dopa) | SMILES | DPPH (%) [2] [%] | inhibition type ([3]; inhibitor 0, 12.64, 25.29, 50.58 μM, L-Dopa 0.5-10.0 mM) |
| --- | --- | --- | --- | --- | --- | --- |
| 46.1 ± 8.21 | 32 ± 10 | – | – | Cc1c(O)c(=O)ccn1-c1cccc(C(=O)NN=Cc2ccccc2[N+](=O)[O-])c1 [6a, 3-(3-hydroxy-2-methyl-4-oxopyridin-1(4H)-yl)-N′-(2-nitrobenzylidene)benzohydrazide] | 77.15 | – |
| 43.1 ± 3.41 | 12 | – | – | Cc1c(O)c(=O)ccn1-c1cccc(C(=O)NN=Cc2ccc(F)cc2)c1 [6b, 3-(3-hydroxy-2-methyl-4-oxopyridin-1(4H)-yl)-N′-(4-fluorobenzylidene)benzohydrazide] | 71.42 | – |
| 30.8 ± 2.85 | 216 ± 80 | – | – | Cc1c(O)c(=O)ccn1-c1cccc(C(=O)NN=Cc2ccc(C#N)cc2)c1 [6c, 3-(3-hydroxy-2-methyl-4-oxopyridin-1(4H)-yl)-N′-(4-cyanobenzylidene)benzohydrazide] | 43.67 | – |
| 49 ± 7.51 | 369 ± 10 | – | – | Cc1ccc(C=NNC(=O)c2cccc(-n3ccc(=O)c(O)c3C)c2)cc1 [6d, 3-(3-hydroxy-2-methyl-4-oxopyridin-1(4H)-yl)-N′-(4-methylbenzylidene)benzohydrazide] | 39.13 | – |
| 41.7 ± 4.07 | 14 ± 10 | – | – | Cc1c(O)c(=O)ccn1-c1cccc(C(=O)NN=Cc2ccc(C(C)C)cc2)c1 [6e, 3-(3-hydroxy-2-methyl-4-oxopyridin-1(4H)-yl)-N′-(4-isopropylbenzylidene)benzohydrazide] | 61.44 | – |
| 34.8 ± 3.83 | 168 ± 30 | – | – | COc1cccc(C=NNC(=O)c2cccc(-n3ccc(=O)c(O)c3C)c2)c1[N+](=O)[O-] [6f, 3-(3-hydroxy-2-methyl-4-oxopyridine-1(4H)-yl)-N′-(3-methoxy-2-nitrobenzylidene)benzohydrazide] | 43.67 | – |
| 28.1 ± 3.97 | 191 ± 70 | – | – | Cc1c(O)c(=O)ccn1-c1cccc(C(=O)NN=Cc2ccc(Cl)cc2Cl)c1 [6g, 3-(3-hydroxy-2-methyl-4-oxopyridin-1(4H)-yl)-N′-(2,4-dichlorobenzylidene)benzohydrazide] | 39.11 | – |
| 11.4 ± 2.59 | > 400 | – | – | Cc1c(O)c(=O)ccn1-c1cccc(C(=O)NN=Cc2cc([N+](=O)[O-])ccc2Cl)c1 [6h, 3-(3-hydroxy-2-methyl-4-oxopyridin-1(4H)-yl)-N′-(2-chloro-5-nitrobenzylidene)benzohydrazide] | 31.91 | – |
| 49.6 ± 12.6 | 185 ± 130 | increased | not affected | Cc1c(O)c(=O)ccn1-c1cccc(C(=O)NN=Cc2cc(Br)ccc2O)c1 [6i, 3-(3-hydroxy-2-methyl-4-oxopyridin-1(4H)-yl)-N′-(5-bromo-2-hydroxybenzylidene)benzohydrazide] | 42.64 | competitive inhibitor; also recorded: competitive type of inhibition |
| 40.4 ± 5 | 383 ± 120 | – | – | Cc1c(O)c(=O)ccn1-c1cccc(C(=O)NN=Cc2ccc([N+](=O)[O-])s2)c1 [6j, 3-(3-hydroxy-2-methyl-4-oxopyridin-1(4H)-yl)-N'-((5-nitrothiophen-2-yl)methylene)benzohydrazide] | 42.74 | – |
| – | 8.9 | – | – | O=c1c(O)c(-c2ccc(O)c(O)c2)oc2cc(O)cc(O)c12 [Quercetin, reference compound] | 74.33 | – |
